How the values were obtained:
[1] = biological target: T1, recombinant human LTA4 hydrolase (rhLTA4H) (Homo sapiens, UniProt P09960); assay: Recombinant human LTA4 hydrolase assay for LTA4 hydrolase inhibitor activity; assay type: biochemical; settings: rhLTA4H, LTA4 substrate, LTB4 by immunoassay; single determination or average; read-out: IC50
T1 construct: made in house; host or cells: Spodoptera frugiperda (Sf-9) cells, recombinant baculovirus (pFastBac1)
T1 sequence (P09960 1-611): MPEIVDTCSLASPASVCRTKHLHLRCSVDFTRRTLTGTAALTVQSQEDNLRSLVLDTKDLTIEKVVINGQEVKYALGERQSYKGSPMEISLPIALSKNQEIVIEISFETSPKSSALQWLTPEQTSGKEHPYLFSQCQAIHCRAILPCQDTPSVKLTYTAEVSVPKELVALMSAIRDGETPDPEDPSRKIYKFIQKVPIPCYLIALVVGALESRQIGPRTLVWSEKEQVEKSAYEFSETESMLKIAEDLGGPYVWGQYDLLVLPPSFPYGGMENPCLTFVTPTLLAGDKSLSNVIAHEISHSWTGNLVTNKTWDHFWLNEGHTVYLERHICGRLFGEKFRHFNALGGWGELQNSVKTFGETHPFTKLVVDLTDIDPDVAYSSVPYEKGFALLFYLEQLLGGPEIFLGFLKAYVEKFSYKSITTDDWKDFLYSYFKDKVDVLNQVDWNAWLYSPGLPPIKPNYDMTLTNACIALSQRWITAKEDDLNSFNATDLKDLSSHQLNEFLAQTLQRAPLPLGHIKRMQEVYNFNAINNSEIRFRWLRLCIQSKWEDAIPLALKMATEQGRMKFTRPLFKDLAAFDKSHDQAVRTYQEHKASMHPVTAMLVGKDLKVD
Outline: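 LTB4 formed from LTA4 substrate (free acid from the methyl ester) was quantified by enzyme immunoassay after a 30 min rt reaction. Enzyme was 10 ng Sf-9-expressed human LTA4 hydrolase, pre-incubated 10 min with compound.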

[2] = system: LTB4 production by calcium ionophore-stimulated murine blood; assay: LTB4 production by calcium ionophore-stimulated murine blood for LTA4H inhibitor activity; assay type: cell-based, CD-1 mice; settings: Mus musculus; murine blood diluted 1 in 15, calcium ionophore A23187, LTB4 by immunoassay; read-out: IC50
Description: Assay 2: LTB4 Production by Calcium Ionophore-Stimulated Murine Blood for LTA4H Inhibitor Activity
CD-1 mice were sacrificed, and blood was collected in heparin-containing syringes by cardiac puncture. […] After the microtiter plate contents were incubated for 15 min at 37° C. in a humidified incubator, calcium ionophore A23187 (Sigma Chemical Co., St. Louis, Mo.) was added to each sample well (final concentration=7 μg/mL). The incubation was continued under the same conditions for an additional 30 min to allow LTB4 formation. The reaction was terminated by centrifugation (833×g, 10 min at 4° C.), and supernatants were analyzed for LTB4 by a commercially available enzyme-linked immunoassay (Cayman Chemical Co.) according to the manufacturer's instructions. Positive controls, under essentially identical conditions but without addition of an inhibitor compound, and negative unstimulated controls, containing all assay components except calcium ionophore, were routinely run in each experiment. […] The values presented here are the result of a single determination or an average of two or more determinations, as indicated in parentheses following each value. For compounds tested three or more times, the average value is followed by the standard deviation

Compound	IC50 [1] [nM]	IC50 [2] [nM]
c1ccc(SC2CCN(CCOc3ccc(Oc4nc5ncccc5s4)cc3)CC2)cc1 [Example 3, 2-(4-{2-[4-(Phenylsulfanyl)piperidin-1-yl]ethoxy}phenoxy)[1,3]thiazolo[4,5-b]pyridine]	70	380
c1cncc(OC2CCN(CCOc3ccc(Oc4nc5ncccc5s4)cc3)CC2)c1 [Example 4, 2-(4-{2-[4-(Pyridin-3-yloxy)piperidin-1-yl]ethoxy}phenoxy)[1,3]thiazolo[4,5-b]pyridine]	9	54
OC1(c2ccccn2)CCN(CCOc2ccc(Oc3nc4ncccc4s3)cc2)CC1 [Example 5, 4-Pyridin-2-yl-1-{2-[4-([1,3]thiazolo[4,5-b]pyridin-2-yloxy)phenoxy]ethyl}piperidin-4-ol]	14	140
c1ccc2c(c1)CCN(CCOc1ccc(Oc3nc4ncccc4s3)cc1)C2 [Example 6, 2-{2-[4-([1,3]Thiazolo[4,5-b]pyridin-2-yloxy)phenoxy]ethyl}-1,2,3,4-tetrahydroisoquinoline]	9	64
c1cnc2nc(Oc3ccc(OCCN4CCCC4)cc3)sc2c1 [Example 9, 2-[4-(2-Pyrrolidin-1-ylethoxy)phenoxy][1,3]thiazolo[4,5-b]pyridine]	6	17
c1cnc2nc(Oc3ccc(OCCN4CCOCC4)cc3)sc2c1 [Example 11, 2-[4-(2-Morpholin-4-ylethoxy)phenoxy][1,3]thiazolo[4,5-b]pyridine]	98	190
c1ccc(OC2CCN(CCOc3ccc(Oc4nc5ncccc5s4)cc3)CC2)nc1 [Example 12, 2-(4-{2-[4-(Pyridin-2-yloxy)piperidin-1-yl]ethoxy}phenoxy)[1,3]thiazolo[4,5-b]pyridine]	11	160
c1cnc2nc(Oc3ccc(OCCN4CCC(Oc5ccncc5)CC4)cc3)sc2c1 [Example 13, 2-(4-{2-[4-(Pyridin-4-yloxy)piperidin-1-yl]ethoxy}phenoxy)[1,3]thiazolo[4,5-b]pyridine]	13	120
NC(=O)N1CC2CN(CCOc3ccc(Oc4nc5ncccc5s4)cc3)CC2C1 (stereo not shown) [Example 19, 5-{2-[4-([1,3]Thiazolo[4,5-b]pyridin-2-yloxy)phenoxy]ethyl}hexahydropyrrolo[3,4-c]pyrrole-2(1H)-carboxamide]	17	340
OC1(c2ccccc2)CCN(CCOc2ccc(Oc3nc4nccnc4s3)cc2)CC1 [Example 22, 4-Phenyl-1-{2-[4-([1,3]thiazolo[4,5-b]pyrazin-2-yloxy)phenoxy]ethyl}piperidin-4-ol]	62	200
OC1(c2cccc(C(F)(F)F)c2)CCN(CCOc2ccc(Oc3nc4nccnc4s3)cc2)CC1 [Example 24, 1-{2-[4-([1,3]Thiazolo[4,5-b]pyrazin-2-yloxy)phenoxy]ethyl}-4-[3-(trifluoromethyl)phenyl]piperidin-4-ol]	52	750
NC(=O)C1CCN(CCOc2ccc(Oc3nc4nccnc4s3)cc2)CC1 [Example 26, 1-{2-[4-([1,3]Thiazolo[4,5-b]pyrazin-2-yloxy)phenoxy]ethyl}piperidine-4-carboxamide]	200	260
OC1(c2ccc(Cl)cc2)CCN(CCOc2ccc(Oc3nc4ncccc4s3)cc2)CC1 [Example 30, 4-(4-Chlorophenyl)-1-{2-[4-([1,3]thiazolo[4,5-b]pyridin-2-yloxy)phenoxy]ethyl}piperidin-4-ol]	30	150
OC1(c2cccc(C(F)(F)F)c2)CCN(CCOc2ccc(Oc3nc4ncccc4s3)cc2)CC1 [Example 33, 1-{2-[4-([1,3]Thiazolo[4,5-b]pyridin-2-yloxy)phenoxy]ethyl}-4-[3-(trifluoromethyl)phenyl]piperidin-4-ol]	17	480
OC1(c2ccccc2)CCN(CCOc2ccc(Oc3nc4cccnc4s3)cc2)CC1 [Example 40, 4-Phenyl-1-{2-[4-([1,3]thiazolo[5,4-b]pyridin-2-yloxy)phenoxy]ethyl}piperidin-4-ol]	99	950
OC1(c2ccc(Cl)cc2)CCN(CCc2ccc(Oc3nc4ncccc4s3)cc2)CC1 [Example 47, 4-(4-Chlorophenyl)-1-{2-[4-([1,3]thiazolo[4,5-b]pyridin-2-yloxy)phenyl]ethyl}piperidin-4-ol]	34	210
NC(=O)N[C@@H]1C[C@H]2CC[C@@H](C1)N2CCc1ccc(Oc2nc3ncccc3s2)cc1 [Example 50, meso-1-[(3-exo)-8-{2-[4-([1,3]Thiazolo[4,5-b]pyridin-2-yloxy)phenyl]ethyl}-8-azabicyclo[3.2.1]oct-3-yl]urea]	2	2300
CC(=O)N1C[C@H]2CC[C@@H](C1)N2CCc1ccc(Oc2nc3cccnc3s2)cc1 [Example 53, meso-2-(4-{2-[3-Acetyl-3,8-diazabicyclo[3.2.1]oct-8-yl]ethyl}phenoxy)[1,3]thiazolo[5,4-b]pyridine]	58	2500
OC1(c2cccc(C(F)(F)F)c2)CCN(CCc2ccc(Oc3nc4ncccc4s3)cc2)CC1 [Example 64, 1-{2-[4-([1,3]Thiazolo[4,5-b]pyridin-2-yloxy)phenyl]ethyl}-4-[3-(trifluoromethyl)phenyl]piperidin-4-ol]	27	220

Continued, values first:

IC50 [1] [nM]	IC50 [2] [nM]	Compound
52	380	c1ccc(CC2CCN(CCOc3ccc(Oc4nc5ncccc5s4)cc3)CC2)cc1 [Example 28, 2-{4-[2-(4-Benzylpiperidin-1-yl)ethoxy]phenoxy}[1,3]thiazolo[4,5-b]pyridine]
13	180	c1cnc2nc(Oc3ccc(OCCN4CCC(c5ccncc5)CC4)cc3)sc2c1 [Example 29, 2-{4-[2-(4-Pyridin-4-ylpiperidin-1-yl)ethoxy]phenoxy}[1,3]thiazolo[4,5-b]pyridine]
19	140	c1ccc(C2CCN(CCOc3ccc(Oc4nc5ncccc5s4)cc3)CC2)nc1 [Example 34, 2-{4-[2-(4-Pyridin-2-ylpiperidin-1-yl)ethoxy]phenoxy}[1,3]thiazolo[4,5-b]pyridine]
3	51	CN(CCOc1ccc(Oc2nc3ncccc3s2)cc1)Cc1ccccc1 [Example 36, N-Benzyl-N-methyl-2-[4-([1,3]thiazolo[4,5-b]pyridin-2-yloxy)phenoxy]ethanamine]
61	950	c1ccc(C2CCN(CCOc3ccc(Oc4nc5cccnc5s4)cc3)CC2)nc1 [Example 38, 2-{4-[2-(4-Pyridin-2-ylpiperidin-1-yl)ethoxy]phenoxy}[1,3]thiazolo[5,4-b]pyridine]
83	580	c1cnc2sc(Oc3ccc(OCCN4CCC(c5ccncc5)CC4)cc3)nc2c1 [Example 42, 2-{4-[2-(4-Pyridin-4-ylpiperidin-1-yl)ethoxy]phenoxy}[1,3]thiazolo[5,4-b]pyridine]
15	100	c1ccc(C2CCN(CCc3ccc(Oc4nc5ncccc5s4)cc3)CC2)nc1 [Example 48, 2-{4-[2-(4-Pyridin-2-ylpiperidin-1-yl)ethyl]phenoxy}[1,3]thiazolo[4,5-b]pyridine]
3	16	CCCN(CCc1ccc(Oc2nc3ncccc3s2)cc1)CC1CC1 [Example 57, N-(Cyclopropylmethyl)-N-{2-[4-([1,3]thiazolo[4,5-b]pyridin-2-yloxy)phenyl]ethyl}propan-1-amine]
8	45	C[C@H](c1ccccc1)N(C)CCc1ccc(Oc2nc3ncccc3s2)cc1 [Example 58, (1R)—N-Methyl-1-phenyl-N-{2-[4-([1,3]thiazolo[4,5-b]pyridin-2-yloxy)phenyl]ethyl}ethanamine]
9.6	100	c1cnc2nc(Oc3ccc(CCN4CCC(c5ccncc5)CC4)cc3)sc2c1 [Example 65, 2-{4-[2-(4-Pyridin-4-ylpiperidin-1-yl)ethyl]phenoxy}[1,3]thiazolo[4,5-b]pyridine]

— patent publication US20110190503A1, “Thiazolopyridin-2-yloxy-phenyl and thiazolopyrazin-2-yloxy-phenyl amines as modulators of leukotriene A4 hydrolase” (Janssen Pharmaceutical NV, priority 2008, published 2011)
